Here are results for 18 compounds from ChEMBL document CHEMBL4219142, “Discovery of potent DOT1L inhibitors by AlphaLISA based High Throughput Screening assay” (Bioorg Med Chem, 2018).

Assay [1] deals with T1, Histone-lysine N-methyltransferase, H3 lysine-79 specific (Homo sapiens, UniProt Q8TEK3). Briefly: Inhibition of recombinant human His6-SUMO tagged DOT1L (1 to 416 residues) expressed in Escherichia coli BL21(DE3) at 25 uM using oligonucleosome as substrate pretreated for 15 mins followed by substrate addition measured after 60 mins in presence of [3H]SAM by liquid scintillation counting method relative to control.
Target sequence in this assay (Q8TEK3 whole entry, looked up, the tested form may be a part): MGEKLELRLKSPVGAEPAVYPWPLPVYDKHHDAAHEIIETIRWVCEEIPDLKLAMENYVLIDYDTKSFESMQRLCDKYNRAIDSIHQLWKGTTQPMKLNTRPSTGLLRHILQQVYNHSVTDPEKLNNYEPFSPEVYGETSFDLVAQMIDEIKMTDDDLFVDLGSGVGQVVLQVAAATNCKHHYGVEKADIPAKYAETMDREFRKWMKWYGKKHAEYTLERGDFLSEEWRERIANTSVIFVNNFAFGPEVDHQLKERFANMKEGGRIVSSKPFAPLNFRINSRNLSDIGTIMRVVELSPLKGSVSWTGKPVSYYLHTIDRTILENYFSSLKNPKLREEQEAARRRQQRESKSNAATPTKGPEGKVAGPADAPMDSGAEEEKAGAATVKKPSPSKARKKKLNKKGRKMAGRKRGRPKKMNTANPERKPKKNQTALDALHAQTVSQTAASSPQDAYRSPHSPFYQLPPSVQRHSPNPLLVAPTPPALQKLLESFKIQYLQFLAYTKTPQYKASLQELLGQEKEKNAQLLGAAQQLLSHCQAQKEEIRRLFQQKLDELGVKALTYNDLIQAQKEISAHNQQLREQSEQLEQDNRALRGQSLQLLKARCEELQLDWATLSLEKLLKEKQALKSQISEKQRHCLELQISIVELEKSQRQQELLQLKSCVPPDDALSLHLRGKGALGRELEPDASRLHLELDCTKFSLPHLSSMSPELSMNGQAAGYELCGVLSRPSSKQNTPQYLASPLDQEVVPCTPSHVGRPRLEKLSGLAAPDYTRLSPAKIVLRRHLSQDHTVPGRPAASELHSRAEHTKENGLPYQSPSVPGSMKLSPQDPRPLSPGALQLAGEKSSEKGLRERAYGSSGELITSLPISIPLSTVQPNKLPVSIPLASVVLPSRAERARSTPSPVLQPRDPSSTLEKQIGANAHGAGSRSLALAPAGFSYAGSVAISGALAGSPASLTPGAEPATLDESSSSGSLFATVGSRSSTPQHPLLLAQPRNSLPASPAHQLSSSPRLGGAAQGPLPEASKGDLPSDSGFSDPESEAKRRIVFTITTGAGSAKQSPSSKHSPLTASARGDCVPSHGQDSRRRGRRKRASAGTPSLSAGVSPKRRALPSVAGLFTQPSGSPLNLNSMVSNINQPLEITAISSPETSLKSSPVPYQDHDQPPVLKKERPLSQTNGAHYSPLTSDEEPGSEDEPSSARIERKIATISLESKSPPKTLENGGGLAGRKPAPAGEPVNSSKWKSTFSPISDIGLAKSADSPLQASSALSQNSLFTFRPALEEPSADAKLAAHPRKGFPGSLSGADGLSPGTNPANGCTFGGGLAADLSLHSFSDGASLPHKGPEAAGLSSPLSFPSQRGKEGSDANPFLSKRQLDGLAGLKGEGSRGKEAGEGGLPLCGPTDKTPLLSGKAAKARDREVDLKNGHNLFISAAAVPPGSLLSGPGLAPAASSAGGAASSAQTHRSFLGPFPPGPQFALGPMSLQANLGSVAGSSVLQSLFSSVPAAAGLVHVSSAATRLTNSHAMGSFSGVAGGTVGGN

For assay [2], the target named is T1, Histone-lysine N-methyltransferase, H3 lysine-79 specific. Briefly: Inhibition of recombinant human His6-SUMO tagged DOT1L (1 to 416 residues) expressed in Escherichia coli BL21(DE3) at 50 uM using oligonucleosome as substrate pretreated for 15 mins followed by substrate addition measured after 60 mins in presence of [3H]SAM by liquid scintillation counting method relative to control.
Target sequence in this assay (Q8TEK3 whole entry, looked up, the tested form may be a part): as above

For assay [3] the target is unchanged. Briefly: Inhibition of recombinant human His6-SUMO tagged DOT1L (1 to 416 residues) expressed in Escherichia coli BL21(DE3) at 100 uM using oligonucleosome as substrate pretreated for 15 mins followed by substrate addition measured after 60 mins in presence of [3H]SAM by liquid scintillation counting method relative to control.
Target sequence in this assay (Q8TEK3 whole entry, looked up, the tested form may be a part): as above
Assay [4] relates to MV4-11. Briefly: Induction of apoptosis in human MV411 cells assessed as necrotic cells at 50 uM after 48 hrs by Annexin-V-FITC/propidium iodide staining based flow cytometric method (Rvb <= 0.08%). Type of assay: functional. On the technique in general: Flow cytometry measures light scatter and fluorescence of single cells or particles in a stream.
Assay [5] deals with MV4-11. The experiment in a line: Cell cycle arrest in human MV411 cells assessed as accumulation at G2 phase at 25 uM after 24 hrs by propidium iodide staining based flow cytometric analysis (reference value: 4.19 to 11.88%). It counts as functional.
Assay [6] addresses T1, Histone-lysine N-methyltransferase, H3 lysine-79 specific. Briefly: Inhibition of recombinant human His6-SUMO tagged DOT1L (1 to 416 residues) expressed in Escherichia coli BL21(DE3) using oligonucleosome as substrate measured after 30 mins in presence of SAM by AlphaLISA assay. (In general: In Alpha technology, singlet oxygen from a donor bead excites a nearby acceptor bead.)
Target sequence in this assay (Q8TEK3 whole entry, the tested form may be a part): as the sequence (Q8TEK3 whole entry, looked up, the tested form may be a part) above

In assay [7] the test system is MV4-11. Briefly: Cell cycle arrest in human MV411 cells assessed as accumulation at G1 phase at 25 uM after 24 hrs by propidium iodide staining based flow cytometric analysis (reference value: 40.62 to 65.56%). Type of assay: functional.
Assay [8] has as its target T1, Histone-lysine N-methyltransferase, H3 lysine-79 specific. Briefly: Binding affinity to recombinant human His6-SUMO tagged DOT1L (1 to 416 residues) expressed in Escherichia coli BL21(DE3) by surface plasmon resonance method.
Target sequence in this assay (Q8TEK3 whole entry, the tested form may be a part): as the sequence (Q8TEK3 whole entry, looked up, the tested form may be a part) above
In assay [9] the test system is MV4-11. Briefly: Cell cycle arrest in human MV411 cells assessed as accumulation at G2 phase at 12.5 uM after 24 hrs by propidium iodide staining based flow cytometric analysis (reference value: 4.19 to 11.88%). It counts as functional.
Assay [10] concerns MV4-11. Briefly: Induction of apoptosis in human MV411 cells assessed as viable cells at 12.5 uM after 48 hrs by Annexin-V-FITC/propidium iodide staining based flow cytometric method (reference value: 88.5 to 94.5%). Type of assay: functional. Conditions: MV4-11, 48 h, read-out: Activity.
In assay [11] the test system is MV4-11. The experiment in a line: Cell cycle arrest in human MV411 cells assessed as accumulation at G1 phase at 50 uM after 24 hrs by propidium iodide staining based flow cytometric analysis (reference value: 40.62 to 65.56%). Type of assay: functional.
Assay [12] relates to MV4-11. The experiment in a line: Induction of apoptosis in human MV411 cells assessed as early apoptotic cells at 25 uM after 48 hrs by Annexin-V-FITC/propidium iodide staining based flow cytometric method (reference value: 1.15 to […]). Type of assay: functional.
Assay [13] concerns MV4-11. The experiment in a line: Induction of apoptosis in human MV411 cells assessed as viable cells at 50 uM after 48 hrs by Annexin-V-FITC/propidium iodide staining based flow cytometric method (reference value: 88.5 to 94.5%). It counts as functional. The settings on record: MV4-11, 48 h, read-out: Activity.
The subject of assay [14] is MV4-11. Briefly: Induction of apoptosis in human MV411 cells assessed as late apoptotic cells at 25 uM after 48 hrs by Annexin-V-FITC/propidium iodide staining based flow cytometric method (reference value: 4.38 to 4.63%). Type of assay: functional.
Assay [15] deals with MV4-11. The experiment in a line: Cell cycle arrest in human MV411 cells assessed as accumulation at G1 phase after 24 hrs by propidium iodide staining based flow cytometric analysis. It counts as functional.
Assay [16] relates to MV4-11. The experiment in a line: Cell cycle arrest in human MV411 cells assessed as accumulation at S phase at 50 uM after 24 hrs by propidium iodide staining based flow cytometric analysis (reference value: 30.25 to 47.5%). Type of assay: functional.
The subject of assay [17] is MV4-11. Briefly: Cell cycle arrest in human MV411 cells assessed as accumulation at S phase at 12.5 uM after 24 hrs by propidium iodide staining based flow cytometric analysis (reference value: 30.25 to 47.5%). Type of assay: functional.
The subject of assay [18] is MV4-11. The experiment in a line: Induction of apoptosis in human MV411 cells assessed as late apoptotic cells at 12.5 uM after 48 hrs by Annexin-V-FITC/propidium iodide staining based flow cytometric method (reference value: 4.38 to 4.63%). Type of assay: functional.
Assay [19] deals with MV4-11. The experiment in a line: Induction of apoptosis in human MV411 cells assessed as viable cells at 25 uM after 48 hrs by Annexin-V-FITC/propidium iodide staining based flow cytometric method (reference value: 88.5 to 94.5%). The settings on record: MV4-11, 48 h, read-out: Activity. Type of assay: functional.
The subject of assay [20] is MV4-11. Briefly: Induction of apoptosis in human MV411 cells assessed as necrotic cells at 12.5 uM after 48 hrs by Annexin-V-FITC/propidium iodide staining based flow cytometric method (Rvb <= 0.08%). Type of assay: functional.
The test system of assay [21] is MV4-11. The experiment in a line: Cell cycle arrest in human MV411 cells assessed as accumulation at G2 phase at 50 uM after 24 hrs by propidium iodide staining based flow cytometric analysis (reference value: 4.19 to 11.88%). It counts as functional.
For assay [22], the system named is MV4-11. The experiment in a line: Cell cycle arrest in human MV411 cells assessed as accumulation at S phase at 25 uM after 24 hrs by propidium iodide staining based flow cytometric analysis (reference value: 30.25 to 47.5%). It counts as functional.
In assay [23] the test system is MV4-11. The experiment in a line: Induction of apoptosis in human MV411 cells assessed as early apoptotic cells at 50 uM after 48 hrs by Annexin-V-FITC/propidium iodide staining based flow cytometric method (reference value: 1.15 to […]). It counts as functional.
The subject of assay [24] is MV4-11. The experiment in a line: Antiproliferative activity against human MV411 cells after 72 hrs by Alamar blue assay. Type of assay: functional, cell-based. Conditions: MV4-11, 72 h. A general note: Resazurin is reduced to fluorescent resorufin, in cell work by metabolically active cells.
Assay [25] deals with MV4-11. The experiment in a line: Induction of apoptosis in human MV411 cells assessed as necrotic cells at 25 uM after 48 hrs by Annexin-V-FITC/propidium iodide staining based flow cytometric method (Rvb <= 0.08%). Type of assay: functional.
Assay [26] has as its system MV4-11. The experiment in a line: Induction of apoptosis in human MV411 cells assessed as late apoptotic cells at 50 uM after 48 hrs by Annexin-V-FITC/propidium iodide staining based flow cytometric method (reference value: 4.38 to 4.63%). It counts as functional.
Assay [27] has as its system MV4-11. The experiment in a line: Cell cycle arrest in human MV411 cells assessed as accumulation at G1 phase at 12.5 uM after 24 hrs by propidium iodide staining based flow cytometric analysis (reference value: 40.62 to 65.56%). Type of assay: functional.
Assay [28] has as its target T1, Histone-lysine N-methyltransferase, H3 lysine-79 specific. Briefly: Inhibition of recombinant human His6-SUMO tagged DOT1L (1 to 416 residues) expressed in Escherichia coli BL21(DE3) using oligonucleosome as substrate pretreated for 15 mins followed by substrate addition measured after 60 mins in presence of [3H]SAM by liquid scintillation counting method.
Target sequence in this assay (Q8TEK3 whole entry, the tested form may be a part): as the sequence (Q8TEK3 whole entry, looked up, the tested form may be a part) above
Assay [29] concerns MV4-11. The experiment in a line: Induction of apoptosis in human MV411 cells assessed as early apoptotic cells at 12.5 uM after 48 hrs by Annexin-V-FITC/propidium iodide staining based flow cytometric method (reference value: 1.15 to […]). It counts as functional.

The structures appear in SMILES notation.

Usually inhibition stands for the relative decrease from the control value, in per cent. For `COc1ccccc1/C=C/c1nn2c(-c3ccc(N(C)C)cc3)nnc2s1`, the inhibition in [1] amounted to 38.5%; in assay [2], 53%; in assay [3], 53%.

Regarding `Cc1occc1-c1nnc2sc(CCc3ccccc3)nn12`, the inhibition in [2] was determined as 11%; in [3] it was 27%.

Turning to `Fc1cccc(-c2nnc3sc(CCc4ccccc4)nn23)c1`, the inhibition stood at 43% in assay [2] and 50% in assay [3].

Consider `Cc1occc1-c1nnc2sc(Cc3ccccc3)nn12`, for which the inhibition in assay [2] turned out to be 13%; in [3], 24%.

`COc1cc(-c2nnc3sc(/C=C/c4ccco4)nn23)cc(OC)c1OC`: the inhibition was 48.1% in assay [1], 53% in assay [2] and 60% in assay [3].

In general, IC50 refers to the point on the concentration scale where inhibition reaches its midpoint. The Kd is the constant that tells how readily two partners part at equilibrium. On to `CN(C)c1ccc(-c2nnc3sc(/C=C/c4ccco4)nn23)cc1`, for which the inhibition came out at 56% in assay [1], 60% in assay [2] and 73% in [3]. Also, the Activity with MV4-11 [4] was determined as 0.09%; in the assay on MV4-11 [5], 3.64%; in the assay with MV4-11 [7], 70.9%; in the assay with MV4-11 [9], 4.64%; with MV4-11 [11], 81.23%; in the assay on MV4-11 [12] it was 35.4%. In addition, the Activity is 42.4% in the assay with MV4-11 [14]; “Dose-dependent effect” in the assay with MV4-11 [15]; 17.77% in the assay with MV4-11 [16]; 25.96% in the assay on MV4-11 [17]; 6.29% with MV4-11 [18]; 0.05% with MV4-11 [20]. The Activity was 0% in the assay on MV4-11 [21]; 25.46% with MV4-11 [22]; 49.3% with MV4-11 [23]; 0.04% in the assay with MV4-11 [25]; 49.8% with MV4-11 [26]; 69.4% in the assay with MV4-11 [27]. In addition, the Activity in the assay with MV4-11 [29] is recorded as 2.01%. Besides, the values for the IC50 (in assay [6]; in the assay with MV4-11 [24]; in assay [28]) were 20.9 µM, 51.5 µM and 20.9 µM, respectively. In addition, in assay [8], the Kd is 9.3 µM. For the same compound, the viability at 12.5 µM with MV4-11 [10] stood at 91.6%. In addition, in the assay with MV4-11 [13], the viability at 50 µM is 0.83%. For the same compound, the viability at 25 µM in the assay on MV4-11 [19] was 22.2%.

On to `C(=C\c1nn2c(N3CCOCC3)nnc2s1)/c1ccco1`, for which the inhibition in assay [1] stood at 45%; in assay [2], 55%; in assay [3] it was 65%.

With `C(=C\c1nn2c(-c3ccccc3)nnc2s1)/c1ccco1`, the inhibition in assay [1] is 79.4%; in assay [2], 79%; in assay [3] it was 81%. Moreover, in [8], the dissociation constant (Kd) is 4.78 to 4.87 µM. The IC50 stood at 64.7 µM with MV4-11 [24] and 7.01 µM in assay [28].

Regarding `c1ccc2c(Cc3nn4c(-c5ccoc5)nnc4s3)cccc2c1`, the inhibition in [1] worked out at 43%; in assay [2] it was 59%; in [3] it was 77%.

Consider `C(=C\c1nn2c(C3CCCCC3)nnc2s1)/c1ccco1`, for which the inhibition in assay [1] worked out at 40.2%; in assay [2] it was 68%; in assay [3], 72%.

Turning to `C(=C\c1nn2c(-c3cc4ccccc4o3)nnc2s1)/c1ccco1`, the inhibition in assay [1] was found to be 9%; in [2], 71%; in [3], 88%.

As to `Cc1cccc(-c2nnc3sc(/C=C/c4ccco4)nn23)c1`, the inhibition turned out to be 66.6% in assay [1], 69% in [2] and 74% in assay [3]. Also, the Kd in assay [8] amounted to 1.21 µM. The half-inhibitory concentration (IC50) with MV4-11 [24] turned out to be 124 µM; in [28] it was 9.41 µM.

On to `Nc1ncnc2c1ncn2[C@@H]1O[C@H](C[C@@H](N)CC[C@H](N)C(=O)O)[C@@H](O)[C@H]1O` [SINEFUNGIN], for which the half-inhibitory concentration (IC50) in assay [6] is 33.7 µM.

Regarding `Fc1ccc(-c2nnc3sc(/C=C/c4ccco4)nn23)cc1`, the inhibition in assay [2] turned out to be 44%; in assay [3], 40%.

Regarding `C(=C\c1nn2c(-c3ccncc3)nnc2s1)/c1ccco1`, the inhibition amounted to 54% in assay [1], 67% in assay [2] and 82% in assay [3]. Moreover, the Kd in assay [8] came to 7.4 µM. Further, the half-inhibitory concentration (IC50) stood at 66.5 µM in the assay on MV4-11 [24] and 13.7 µM in assay [28].

As for `Fc1cccc(-c2nnc3sc(/C=C/c4ccco4)nn23)c1`, the results for the inhibition in assay [2] and in assay [3] were 22% and 29%, respectively.

Regarding `COc1cccc(-c2nnc3sc(/C=C/c4ccco4)nn23)c1`, the inhibition is 48.5% in assay [1], 51% in assay [2] and 59% in assay [3].

Turning to `Cc1occc1-c1nnc2sc(CCCc3ccccc3)nn12`, the inhibition worked out at 17% in assay [2] and 41% in assay [3].
